We go through two molecules from PMC8071183 (International Journal of Molecular Sciences, 2021).

In assay [1] the target is T1, WT D2R (human dopamine D2S receptor) (Homo sapiens, UniProt P14416). The assay can be described thus: GIRK current deactivation following agonist washout (koff estimate), WT D2R. It is filed as cell-based. On the procedure:
We obtained such estimates of koff by analyzing the washout phase following short (13 s) applications of submaximally effective agonist concentrations (see legend of Figure 2) in oocytes co-expressing WT D2R with GIRK1/4 and RGS4.
Experiments were performed using a perfusion rate of 4.5 mL/min. Data are presented as mean ± SEM.
(§1) Injected cells were incubated for another 6 days at 12 °C in modified Barth’s solution (MBS), composed of (in mM): 88 NaCl, 1 KCl, 2.4 NaHCO3, 15 HEPES, 0.33 Ca(NO3)2, 0.41 CaCl2, 0.92 MgSO4, and 2.5 sodium pyruvate, supplemented with 25 U/mL penicillin and 25 µg/mL streptomycin and adjusted to pH 7.6 with NaOH. […] For each concentration of agonist, the relative current amplitude after 60 s (when a steady-state response had been achieved) of agonist perfusion was plotted to generate the concentration-response relationships. Oocytes were selected for electrophysiology recordings based on having holding currents at −40 mV of less than 0.5 µA. Likewise, recordings where holding currents at −40 mV were greater than 0.5 µA after data acquisition at −80 mV were discarded.

The target in assay [2] is T1, WT D2R (human dopamine D2S receptor). The assay can be described thus: GIRK current activation rate (kobs) vs agonist concentration (kon estimate), WT D2R. It is filed as cell-based. On the procedure:
(§2) A straight line was fitted to the data over the linear range of the relation between kobs and agonist concentration and the slope was taken as a measure of kon.
(§3) Experiments were performed using a perfusion rate of 4.5 mL/min. […] Note the logarithmic y-axis. […] Data are presented as mean ± SEM.
(§4) Association rate constant estimates were derived from recordings of GIRK current activation in response to applications of various agonist concentrations. Monoexponential functions were fit to cover 80% of the current increase in response to agonist using Levenberg–Marquardt least-squares fitting in Clampfit 10, outputting the activation time constant, τact. […] However, rather than using Equation (2), koff was calculated separately from the response decay time constant upon agonist washout, τdeact, as described above.

Assay [3] deals with T2, D2R S193^5.42A (human dopamine D2S receptor mutant) (Homo sapiens, UniProt P14416, S193A). Nature of the assay: cell-based. The settings on record: read-out: koff ± SEM.
T2 sequence (P14416 1-414 isoform P14416-2 S193A): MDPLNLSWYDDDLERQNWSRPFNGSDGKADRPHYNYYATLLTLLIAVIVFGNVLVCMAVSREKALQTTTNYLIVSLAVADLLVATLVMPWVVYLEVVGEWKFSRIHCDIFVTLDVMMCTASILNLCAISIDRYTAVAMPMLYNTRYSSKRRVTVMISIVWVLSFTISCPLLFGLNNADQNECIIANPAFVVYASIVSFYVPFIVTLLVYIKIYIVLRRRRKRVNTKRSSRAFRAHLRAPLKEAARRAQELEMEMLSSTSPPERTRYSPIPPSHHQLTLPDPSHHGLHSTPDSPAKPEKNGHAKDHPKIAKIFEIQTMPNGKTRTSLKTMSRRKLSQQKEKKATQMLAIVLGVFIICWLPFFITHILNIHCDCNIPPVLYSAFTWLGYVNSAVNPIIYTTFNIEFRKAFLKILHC
For assay [4], the target named is T1, WT D2R (human dopamine D2S receptor). Nature of the assay: cell-based. On the procedure: (§5) Following agonist application to Xenopus oocytes expressing D2R and GIRK1/4 subunits, Gβγ subunits released from activated Gi/o protein heterotrimers open the GIRK channels. […] Here, we used the GIRK current in oocytes voltage-clamped at −80 mV and superfused with a high-K^+ buffer (25 mM KCl) as a readout of agonist binding to D2R.
(§6) Thus, increasing agonist concentrations were applied consecutively to voltage-clamped oocytes expressing WT D2R, RGS4, and GIRK1/4. […] A representative trace of currents measured during p-tyramine concentration–response data acquisition is shown in Supplementary Figure S1).
as §1
(§7) Agonist concentration–response relationships were analyzed by fitting sigmoidal functions using nonlinear regression in GraphPad Prism 8 (GraphPad Software, San Diego, CA, USA).

The target of assay [5] is T2, D2R S193^5.42A (human dopamine D2S receptor mutant). Nature of the assay: cell-based. The settings on record: for EC50: GIRK activation, perfusion 1 mL/min. On the procedure: as §5, §6, §1, §7
In another assay the test system is D2R S193^5.42A. The conditions noted are these: cited from earlier work.
Assay [6] concerns the target T2, D2R S193^5.42A (human dopamine D2S receptor mutant). The assay can be described thus: cell-based. On the procedure:
as §2, §3, §4
Kinetic Kds were calculated as:Kd = koff/kon(3)

In a further assay the test system is D2R. The settings on record: 1 µM haloperidol; 100 nM DA; cited from earlier work.
The test system of assay [7] is GIRK channels. Nature of the assay: Direct GIRK channel block by haloperidol. In kind it is cell-based. The settings on record: haloperidol at 3 µM; n = 4.
Assay [8] deals with GIRK channels. The conditions noted are these: haloperidol at 1 µM; cited from earlier work.

One may read the koff as the rate constant with which the complex falls apart. What is called Kd is the free concentration of one partner at which half of the binding sites on the other are occupied at equilibrium, for simple one-to-one binding. The term kon denotes the rate constant with which the complex forms. One may read the EC50 as the concentration at which the effect is half-maximal. Lower therefore signals higher potency in that assay.

SMILES strings stand for the structures.

T1 sequence (P14416 1-414 isoform P14416-2): as the sequence (P14416 1-414 isoform P14416-2 S193A) above, with A193S counted along it

On to `NCCc1ccc(O)cc1` [p-tyramine], for which the koff is 0.123 ± 0.008 s⁻¹ in assay [1] and 0.112 ± 0.008 s⁻¹ in assay [3]. Further, the dissociation constant Kd was 24.5 µM in assay [2] (Kd = koff/kon, read-out: pKd ± SEM (kinetic Kd) (converted)) and 11.7 µM in [6]. The on-rate (kon) is 4940 ± 1.15e+06 M⁻¹ s⁻¹ in assay [2] (slope of linear fit of kobs vs agonist concentration, perfusion 4.5 mL/min) and 9410 ± 2.34e+06 M⁻¹ s⁻¹ in assay [6] (read-out: kon ± SEM). The half-maximal effective concentration (EC50) in [4] was 100 µM; in [5] (EC50, S193^5.42A D2R), 47.9 µM; in assay [5] (pEC50 ± SEM, S193^5.42A D2R) it was 47.9 µM. Besides, the “Relative efficacy (fitted Top)” value in assay [4] (WT D2R, normalized to the response evoked by 1 µM DA) came out at 0.09 ± 0.01; in assay [5] (S193^5.42A D2R, normalized to the response evoked by 300 µM DA) it was 0.37 ± 0.01. The “fold increase of DA-normalized agonist efficacy at S193^5.42A” value in [5] (S193^5.42A vs WT D2R) was 4.1 fold. In addition, the “decrease of affinity by alanine mutation of S193^5.42” value in the assay on D2R S193^5.42A is on record as “less than twofold”.

On to `O=C(CCCN1CCC(O)(c2ccc(Cl)cc2)CC1)c1ccc(F)cc1` [haloperidol], for which the “block of the GIRK response to DA” value in the assay on D2R is recorded as “fully blocks”. Further, the “direct GIRK current block” value with GIRK channels [7] came out at 5.9 ± 0.2%. Further, the GIRK channel block entry with GIRK channels [8] is reported as “negligible”.
